Test system: tyrosinase
Assay: tyrosinase activity under mildly acidic conditions by consumption of dissolved oxygen
Assay type: biochemical, mushroom
Conditions: chlorogenic acid 6 mM, 0.16% chitosan, pH about 5.8 to 6.0, tyrosinase 60 U/mL
Method: The reactivity of tyrosinase under mildly acidic conditions was studied to verify that the enzyme remains active in acidic solution. The progress of the reaction was measured by monitoring the consumption of dissolved oxygen, using the method described in Mayer et al., “Assay of catechol oxidase: A critical comparison of methods,” Phytochem., 5:783-789 (1966). The dissolved oxygen probe used in these measurements was obtained from Microelectrodes, Londonderry, N.H. Chlorogenic acid (6 mM) was added to a 0.16% chitosan solution, and the pH was adjusted to about 5.8 to 6.0. Tyrosinase (60 U/mL) was added, the reaction vessel sealed, and the dissolved oxygen content measured as a function of time. Two control solutions were prepared and monitored in the same manner, one containing only tyrosinase and chitosan (no phenolic compound), and one containing only chlorogenic acid and chitosan (no enzyme). The results of these measurements are shown in FIG. 1, with the two control solutions labeled “tyrosinase only” and “chlorogenic acid only,” respectively. […] In the solution containing both tyrosinase and chlorogenic acid, however, the oxygen level dropped rapidly in the first few minutes, reaching essentially zero after about 10 to 12 minutes.

O=C(/C=C/c1ccc(O)c(O)c1)O[C@@H]1C[C@](O)(C(=O)O)C[C@@H](O)[C@H]1O [chlorogenic acid]
time for dissolved oxygen level to reach essentially zero: 10 to 12 min
